In US12077503B2, “Substituted cyclic amides and their use as herbicides” (FMC CORPORATION, priority 2015, dated 2024):

Assays:
Type in all cases: in vivo
[1] = system: pigweed (Amaranthus retroflexus); assay: Test A preemergence; settings: Amaranthus retroflexus, pre-emergence, 240 h
Kochia (Kochia scoparia) [2] = assay: Test A preemergence; settings: Bassia scoparia, pre-emergence, 240 h
Summary of the method: (§1)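 Visual injury, scored on a 0–100 scale relative to untreated controls, was recorded about 10 d after application. Treatments were a preemergence soil spray over planted seeds or a postemergence spray on plants at the one- to two-leaf stage, 2 to 10 cm tall, all in loam soil–sand blend in the greenhouse.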

[3] = system: ragweed (common ragweed, Ambrosia elatior); assay: Test A preemergence; settings: Ambrosia artemisiifolia, pre-emergence, 240 h
Summary of the method: as §1

[4] = system: ryegrass, Italian (Italian ryegrass, Lolium multiflorum); assay: Test A preemergence; settings: Lolium multiflorum, pre-emergence, 240 h, Preemergence, 125 g ai/ha; 0 to 100 scale (0 no effect, 100 complete control); read-out: Plant response rating, Ryegrass, Italian
Summary of the method: as §1

[5] = system: giant foxtail (Setaria faberii); assay: Test A preemergence; settings: Setaria faberi, pre-emergence, 240 h
Summary of the method: as §1

[6] = system: Galium (catchweed bedstraw, Galium aparine); assay: Test A postemergence; settings: Galium, post-emergence, 240 h, Postemergence
Summary of the method: as §1

[7] = system: pigweed (Amaranthus retroflexus); assay: Test A postemergence; settings: Amaranthus retroflexus, post-emergence, 240 h, Postemergence
Summary of the method: as §1

corn (Zea mays) = assay: Test A postemergence; settings: Zea mays, post-emergence, 240 h, Postemergence
Summary of the method: as §1

[8] = system: blackgrass (Alopecurus myosuroides); assay: Test A postemergence; settings: Alopecurus myosuroides, post-emergence, 240 h, Postemergence
Summary of the method: as §1

[9] = system: wheat (Triticum aestivum); assay: Test A postemergence; settings: Triticum aestivum, post-emergence, 240 h, Postemergence
Summary of the method: as §1

Kochia (Kochia scoparia) [10] = assay: Test A postemergence; settings: Bassia scoparia, post-emergence, 240 h, Postemergence
Summary of the method: as §1

[11] = system: barnyardgrass (Echinochloa crus-galli); assay: Test A postemergence; settings: Echinochloa crus-galli, post-emergence, 240 h, Postemergence
Summary of the method: as §1

[12] = system: ragweed (common ragweed, Ambrosia elatior); assay: Test A postemergence; settings: Ambrosia artemisiifolia, post-emergence, 240 h, Postemergence
Summary of the method: as §1

[13] = system: ryegrass, Italian (Italian ryegrass, Lolium multiflorum); assay: Test A postemergence; settings: Lolium multiflorum, post-emergence, 240 h, Postemergence
Summary of the method: as §1

[14] = system: giant foxtail (Setaria faberii); assay: Test A postemergence; settings: Setaria faberi, post-emergence, 240 h, Postemergence
Summary of the method: as §1

Compound: CN1C[C@H](c2cccc(C(C)(F)F)c2)[C@@H](C(=O)Nc2cccc(F)c2F)C1=O [Compound 1316]
- pest or weed control at 500 g/ha ([1]; 500 g ai/ha, preemergence, 0 to 100 scale where 0 is no effect and 100 is complete control, read-out: Pigweed plant response rating): 80%
- pest or weed control at 125 g/ha ([1]; Preemergence, 125 g ai/ha, 0 to 100 scale (0 no effect, 100 complete control), read-out: Plant response rating, Pigweed): 70%
- pest or weed control at 500 g/ha (Kochia (Kochia scoparia) [2]; 500 g ai/ha, preemergence, 0 to 100 scale where 0 is no effect and 100 is complete control, read-out: Kochia plant response rating): 80%
- pest or weed control at 125 g/ha (Kochia (Kochia scoparia) [2]; Preemergence, 125 g ai/ha, 0 to 100 scale (0 no effect, 100 complete control), read-out: Plant response rating, Kochia): 80%
- pest or weed control at 500 g/ha ([3]; 500 g ai/ha, preemergence, 0 to 100 scale where 0 is no effect and 100 is complete control, read-out: Ragweed plant response rating): 70%
- pest or weed control at 125 g/ha ([3]; Preemergence, 125 g ai/ha, 0 to 100 scale (0 no effect, 100 complete control), read-out: Plant response rating, Ragweed): 0%
- pest or weed control at 125 g/ha [4]: 70%
- pest or weed control at 500 g/ha ([5]; 500 g ai/ha, preemergence, 0 to 100 scale where 0 is no effect and 100 is complete control, read-out: Foxtail, Giant plant response rating): 90%
- pest or weed control at 125 g/ha ([5]; Preemergence, 125 g ai/ha, 0 to 100 scale (0 no effect, 100 complete control), read-out: Plant response rating, Foxtail, Giant): 90%
- pest or weed control at 125 g/ha ([6]; 125 g ai/ha, visual rating about 10 d after treatment, read-out: Galium plant response rating (0 to 100 scale)): 60%
- pest or weed control at 500 g/ha ([6]; 500 g ai/ha, visual injury, 0 to 100 scale (0 no effect, 100 complete control), approx. 10 d, read-out: Plant response rating, Galium): 60%
- pest or weed control at 125 g/ha ([7]; 125 g ai/ha, visual rating about 10 d after treatment, read-out: Pigweed plant response rating (0 to 100 scale)): 50%
- pest or weed control at 500 g/ha ([7]; 500 g ai/ha, visual injury, 0 to 100 scale (0 no effect, 100 complete control), approx. 10 d, read-out: Plant response rating, Pigweed): 60%
- plant injury at 125 g/ha (corn (Zea mays); 125 g ai/ha, visual rating about 10 d after treatment, read-out: Corn plant response rating (0 to 100 scale)): 80%
- Corn plant response rating (crop injury, 0 = no effect, 100 = complete kill) at 500 g/ha (corn (Zea mays); 500 g ai/ha, visual injury, 0 to 100 scale (0 no effect, 100 complete control), approx. 10 d): 80%
- pest or weed control at 125 g/ha ([8]; 125 g ai/ha, visual rating about 10 d after treatment, read-out: Blackgrass plant response rating (0 to 100 scale)): 70%
- pest or weed control at 500 g/ha ([8]; 500 g ai/ha, visual injury, 0 to 100 scale (0 no effect, 100 complete control), approx. 10 d, read-out: Plant response rating, Blackgrass): 80%
- plant injury at 125 g/ha ([9]; 125 g ai/ha, visual rating about 10 d after treatment, read-out: Wheat plant response rating (0 to 100 scale)): 60%
- plant injury at 500 g/ha ([9]; 500 g ai/ha, visual injury, 0 to 100 scale (0 no effect, 100 complete control), approx. 10 d, read-out: Plant response rating, Wheat): 80%
- pest or weed control at 125 g/ha (Kochia (Kochia scoparia) [10]; 125 g ai/ha, visual rating about 10 d after treatment, read-out: Kochia plant response rating (0 to 100 scale)): 30%
- pest or weed control at 500 g/ha (Kochia (Kochia scoparia) [10]; 500 g ai/ha, visual injury, 0 to 100 scale (0 no effect, 100 complete control), approx. 10 d, read-out: Plant response rating, Kochia): 40%
- pest or weed control at 125 g/ha ([11]; 125 g ai/ha, visual rating about 10 d after treatment, read-out: Barnyardgrass plant response rating (0 to 100 scale, 0 no effect, 100 complete control)): 90%
- pest or weed control at 500 g/ha ([11]; 500 g ai/ha, visual injury, 0 to 100 scale (0 no effect, 100 complete control), approx. 10 d, read-out: Plant response rating, Barnyardgrass): 90%
- pest or weed control at 125 g/ha ([12]; 125 g ai/ha, visual rating about 10 d after treatment, read-out: Ragweed plant response rating (0 to 100 scale)): 30%
- pest or weed control at 500 g/ha ([12]; 500 g ai/ha, visual injury, 0 to 100 scale (0 no effect, 100 complete control), approx. 10 d, read-out: Plant response rating, Ragweed): 70%
- pest or weed control at 125 g/ha ([13]; 125 g ai/ha, visual rating about 10 d after treatment, read-out: Ryegrass, Italian plant response rating (0 to 100 scale)): 50%
- pest or weed control at 500 g/ha ([13]; 500 g ai/ha, visual injury, 0 to 100 scale (0 no effect, 100 complete control), approx. 10 d, read-out: Plant response rating, Ryegrass, Italian): 80%
- pest or weed control at 125 g/ha ([14]; 125 g ai/ha, visual rating about 10 d after treatment, read-out: Foxtail, Giant plant response rating (0 to 100 scale)): 90%
- pest or weed control at 500 g/ha ([14]; 500 g ai/ha, visual injury, 0 to 100 scale (0 no effect, 100 complete control), approx. 10 d, read-out: Plant response rating, Foxtail, Giant): 90%
